Measurements: patent publication US12653900B2, “Antibody drug conjugates comprising ecteinascidin derivatives” (PHARMA MAR, S.A., priority 2018, dated 2026)
pIC50: −log10 of the molar value. ≈ marks a conversion by molar mass, not a printed value. Where “and” joins values, the source holds several entries; their conditions need not be identical. Equal values may be shown once. Read-outs that look alike come from different tables or passages of the source.

Legend:
[1] = tested on: MDA-MB-231; assay: cells; type: cell-based; conditions: MDA-MB-231, 72 hours treatment, SRB
Text: (§1) Evaluation of Cytotoxic Activity Using the SRB and the MTT Colorimetric Assays

[2] = tested on: HT29; assay: cells; type: cell-based; conditions: HT29, 72 hours treatment, SRB
Text: as §1

[3] = tested on: PSN1; type: cell-based; conditions: PSN1, 72 hours treatment, SRB
Text: as §1

[4] = tested on: A549; type: cell-based; conditions: A549, 72 hours treatment, SRB
Text: as §1

[5] = tested on: NB 4 (CD13+); assay: In vitro cytotoxicity of ADCs and related reagents, MTT assay; type: cell-based, human; conditions: NB-4 cells, geometric mean of the IC50 values of three experiments
Protocol: (§2) Briefly, cells were seeded in 96-well trays and treated as above and after 72 hours of exposure to the tested substances cellular viability was estimated from conversion of MTT (Sigma, St Louis, MO, USA) to its coloured reaction product, MTT-formazan, which was dissolved in DMSO to measure its absorbance at 540 nm in a microplate spectrophotometer.
(§3) Cell survival was expressed as percentage of control, untreated cell survival.

[6] = tested on: Raji (CD13−); assay: as above; type: cell-based, human; conditions: Raji cells, geometric mean of the IC50 values of three experiments
Protocol: as §2, §3

[7] = tested on: RPMI 8226 (CD13−); assay: as above; type: cell-based, human; conditions: RPMI8226 cells, geometric mean of the IC50 values of three experiments
Protocol: as §2, §3

[8] = tested on: SK-BR-3, HCC-1954, MDA-MB-231 and MCF-7 cells; assay: In vitro cytotoxicity across the HER2 breast cancer cell panel and HER2 selectivity; type: cell-based; conditions: for IC50: Homo sapiens
Protocol: For SK-BR-3, HCC-1954, MDA-MB-231 and MCF-7 cells, a colorimetric assay using Sulforhodamine B (SRB) was adapted for quantitative measurement of cell growth and cytotoxicity, as described in V. Vichai and K. Kirtikara. Sulforhodamine B colorimetric assay for cytotoxicity screening. Nature Protocols, 2006, 1, 1112-1116. Briefly, cells were seeded in 96-well microtiter plates and allowed to stand for 24 hours in drug-free medium before treatment with vehicle alone or with the tested substances for 72 hours.
as §3
Standard dose-response (DR) curves for 72 hours incubation with the tested substances were performed.

[9] = tested on: HT-1080, NB 4, Raji and RPMI 8226 cells; assay: In vitro cytotoxicity across the CD13 cell panel and CD13 selectivity; type: cell-based, human; conditions: CD13 positive and negative cell lines; for IC50: Homo sapiens
Text: as §3

[10] = tested on: HT-1080 (CD13+); assay: In vitro cytotoxicity of ADCs and related reagents, MTT assay; type: cell-based; conditions: Homo sapiens, read-out: IC50 HT-1080 (CD13 positive); HT-1080 cells; geometric mean of the IC50 values of three experiments
Text: as §3

[11] = tested on: SK-BR-3 (HER2+); assay: In vitro cytotoxicity of ADCs and related reagents, SRB assay; type: cell-based; conditions: Homo sapiens
Protocol: (§4) Sulforhodamine B colorimetric assay for cytotoxicity screening. […] Briefly, cells were seeded in 96-well microtiter plates and allowed to stand for 24 hours in drug-free medium before treatment with vehicle alone or with the tested substances for 72 hours.
as §3

[12] = tested on: HCC-1954 (HER2+); assay: as above; type: cell-based; conditions: Homo sapiens, HCC1954
Protocol: as §4, §3

[13] = tested on: MDA-MB-231 (HER2−); assay: as above; type: cell-based; conditions: Homo sapiens
Protocol: as §4, §3

[14] = tested on: MCF-7 (HER2−); assay: as above; type: cell-based; conditions: Homo sapiens, MCF7
Protocol: as §4, §3

[15] = read-out: LC50 (the source's name)
[16] = read-out: geometric mean IC50 value across the whole cell panel
[17] = SK-BR-3, HER2 positive, 72 hours, read-out: IC50
[18] = HCC-1954, HER2 positive, 72 hours, read-out: IC50
[19] = MDA-MB-231, HER2 negative, 72 hours, read-out: IC50
[20] = read-out: IC50 values, range over the four cell lines
[21] = MCF-7, HER2 negative, 72 hours, read-out: IC50

COc1c(C)cc2c(c1O)C1C3C4SCC5(NC(COC(C)=O)Cc6c5[nH]c5ccccc65)C(=O)OCC(c5c6c(c(C)c(OC(C)=O)c54)OCO6)N3C(C#N)C(C2)N1C (stereo not drawn) [3a-S]
GI50 [1]: 2.87 nM | TGI [1]: 3.59E-09 Molar | CC50 [1, 15]: 4.9 nM | GI50 [2]: 2.99 nM | TGI [2]: 3.23E-09 Molar | CC50 [2, 15]: > 120 nM | GI50 [3]: 2.15 nM | TGI [3]: 3.59E-09 Molar | CC50 [3, 15]: 12 nM | GI50 [4]: 3.11 nM | LC50 (concentration giving 50% net cell kill) [4]: > 120 nM | TGI [4]: 3.23E-09 Molar

COc1c(C)cc2c(c1O)[C@@H]1[C@@H]3[C@@H]4SC[C@]5(N[C@@H](CN)Cc6c5[nH]c5ccccc65)C(=O)OC[C@@H](c5c6c(c(C)c(OC(C)=O)c54)OCO6)N3[C@@H](C#N)[C@H](C2)N1C [11-R]
IC50 NB-4 (CD13 positive) [5]: 0.46 ng/mL (≈ 0.58 nM) | pIC50 ([5]; read-out: IC50 NB-4 (CD13 positive)): 9.24 | IC50 Raji (CD13 negative) [6]: 0.967 ng/mL (≈ 1.22 nM) | pIC50 ([6]; read-out: IC50 Raji (CD13 negative)): 8.91 | IC50 RPMI8226 (CD13 negative) [7]: 0.928 ng/mL (≈ 1.17 nM) | pIC50 ([7]; read-out: IC50 RPMI8226 (CD13 negative)): 8.93 | geometric mean IC50 value across the whole cell panel ([8]; SK-BR-3, HCC-1954, MDA-MB-231, MCF-7): 0.79 ng/mL | pIC50 ([8]; SK-BR-3, HCC-1954, MDA-MB-231, MCF-7, read-out: geometric mean IC50 value across the whole cell panel): 9.00 | geometric mean IC50 value across the whole cell panel [9]: 0.84 ng/mL | pIC50 [9, 16]: 8.97

COc1c(C)cc2c(c1O)[C@@H]1[C@@H]3[C@@H]4SC[C@]5(N[C@@H](CN)Cc6c5[nH]c5ccccc65)C(=O)OC[C@@H](c5c6c(c(C)c(OC(C)=O)c54)OCO6)N3[C@@H](O)[C@H](C2)N1C [12-R]
IC50 ([5]; Homo sapiens, read-out: IC50 NB-4 (CD13 positive)): 0.00033 µg/mL and 0.421 nM | IC50 ([6]; Homo sapiens, read-out: IC50 Raji (CD13 negative)): 0.00047 µg/mL and 0.6 nM | IC50 ([7]; Homo sapiens, RPMI-8226, read-out: IC50 RPMI8226 (CD13 negative)): 0.00083 µg/mL and 1.06 nM | IC50 [10]: 0.0011 µg/mL and 1.4 nM | IC50 [11, 17]: 0.000441 µg/mL and 0.562 nM | IC50 [12, 18]: 0.00127 µg/mL and 1.62 nM | IC50 [13, 19]: 0.000493 µg/mL and 0.629 nM | IC50 [8, 20]: 0.0004 µg/mL to 0.0013 µg/mL and 0.562 nM to 1.62 nM | IC50 [8, 16]: 0.00071 µg/mL and 0.906 nM | IC50 [9, 20]: 0.0003 µg/mL to 0.0011 µg/mL and 0.421 nM to 1.4 nM | IC50 [9, 16]: 0.0006 µg/mL and 0.78 nM

COc1ccc2[nH]c3c(c2c1)C[C@H](CN)N[C@]31CS[C@@H]2c3c(OC(C)=O)c(C)c4c(c3[C@H](COC1=O)N1[C@@H]2[C@H]2c3c(cc(C)c(OC)c3O)C[C@@H]([C@@H]1O)N2C)OCO4 [27-R]
TGI [1]: 5.41E-10 Molar | TGI [2]: 5.53E-10 Molar | TGI [3]: 1.17E-09 Molar | TGI [4]: 3.93E-09 Molar

COc1ccc2[nH]c3c(c2c1)C[C@@H](CN)N[C@]31CS[C@@H]2c3c(OC(C)=O)c(C)c4c(c3[C@H](COC1=O)N1[C@@H]2[C@H]2c3c(cc(C)c(OC)c3O)C[C@@H]([C@@H]1O)N2C)OCO4 [27-S]
TGI [2]: 1.35E-09 Molar | TGI [3]: 2.83E-09 Molar | TGI [4]: 1.12E-08 Molar

COc1c(C)cc2c(c1O)[C@@H]1[C@@H]3[C@@H]4SC[C@]5(N[C@@H](CN)Cc6c5oc5ccccc65)C(=O)OC[C@@H](c5c6c(c(C)c(OC(C)=O)c54)OCO6)N3[C@@H](C#N)[C@H](C2)N1C [46-R]
IC (TGI) ([1]; Homo sapiens): 1.39 nM | IC (TGI) ([2]; Homo sapiens, HT-29): 1.39 nM

COc1c(C)cc2c(c1O)[C@@H]1[C@@H]3[C@@H]4SC[C@]5(N[C@@H](CNC(=O)OCc6ccc(NC(=O)[C@H](CCCNC(N)=O)NC(=O)[C@@H](NC(=O)CCCCCN7C(=O)C=CC7=O)C(C)C)cc6)Cc6c5[nH]c5ccccc65)C(=O)OC[C@@H](c5c6c(c(C)c(OC(C)=O)c54)OCO6)N3[C@@H](C#N)[C@H](C2)N1C [DL 1]
IC50 [11, 17]: 0.116 µg/mL and 83.1 nM | IC50 [14, 21]: 0.433 µg/mL and 311 nM | IC50 [12, 18]: 0.18 µg/mL and 129 nM | IC50 [13, 19]: 0.0728 µg/mL and 52.3 nM | IC50 [8, 20]: 0.07 µg/mL to 0.43 µg/mL and 52.3 nM to 311 nM | IC50 [8, 16]: 0.16 µg/mL and 115 nM

COc1c(C)cc2c(c1O)[C@@H]1[C@@H]3[C@@H]4SC[C@]5(N[C@@H](CNC(=O)OCc6ccc(NC(=O)[C@H](CCCNC(N)=O)NC(=O)[C@@H](NC(=O)CCOCCOCCOCCOCCNC(=O)CCN7C(=O)C=CC7=O)C(C)C)cc6)Cc6c5[nH]c5ccccc65)C(=O)OC[C@@H](c5c6c(c(C)c(OC(C)=O)c54)OCO6)N3[C@@H](C#N)[C@H](C2)N1C [DL 2]
IC50 [11, 17]: 0.2 µg/mL and 125 nM | IC50 [14, 21]: 0.469 µg/mL and 294 nM | IC50 [12, 18]: 0.31 µg/mL and 194 nM | IC50 [13, 19]: 0.2 µg/mL and 125 nM | IC50 [8, 20]: 0.2 µg/mL to 0.47 µg/mL and 125 nM to 294 nM | IC50 [8, 16]: 0.28 µg/mL and 173 nM

COc1c(C)cc2c(c1O)[C@@H]1[C@@H]3[C@@H]4SC[C@]5(N[C@@H](CNC(=O)OCc6ccc(NC(=O)[C@H](C)NC(=O)[C@@H](NC(=O)CCOCCOCCOCCOCCNC(=O)CCN7C(=O)C=CC7=O)C(C)C)cc6)Cc6c5[nH]c5ccccc65)C(=O)OC[C@@H](c5c6c(c(C)c(OC(C)=O)c54)OCO6)N3[C@@H](C#N)[C@H](C2)N1C [DL 3]
IC50 [11, 17]: 0.16 µg/mL and 106 nM | IC50 [14, 21]: 0.279 µg/mL and 185 nM | IC50 [12, 18]: 0.24 µg/mL and 159 nM | IC50 [13, 19]: 0.15 µg/mL and 99.3 nM | IC50 [8, 20]: 0.15 µg/mL to 0.28 µg/mL and 99.3 nM to 185 nM | IC50 [8, 16]: 0.2 µg/mL and 133 nM

COc1c(C)cc2c(c1O)[C@@H]1[C@@H]3[C@@H]4SC[C@]5(N[C@@H](CNC(=O)OCc6ccc(NC(=O)[C@H](C)NC(=O)[C@@H](NC(=O)CCOCCOCCOCCOCCNC(=O)CCN7C(=O)C=CC7=O)C(C)C)cc6)Cc6c5[nH]c5ccccc65)C(=O)OC[C@@H](c5c6c(c(C)c(OC(C)=O)c54)OCO6)N3[C@@H](O)[C@H](C2)N1C [DL 5]
IC50 [11, 17]: 0.0981 µg/mL and 65.3 nM | IC50 [14, 21]: 0.17 µg/mL and 113 nM | IC50 [12, 18]: 0.191 µg/mL and 127 nM | IC50 [13, 19]: 0.0981 µg/mL and 65.3 nM | IC50 [8, 20]: 0.1 µg/mL to 0.19 µg/mL and 65.3 nM to 127 nM | IC50 [8, 16]: 0.13 µg/mL and 88.4 nM

COc1c(C)cc2c(c1O)[C@@H]1[C@@H]3[C@@H]4SC[C@]5(N[C@@H](CNC(=O)OCc6ccc(NC(=O)[C@H](CCCNC(N)=O)NC(=O)[C@@H](NC(=O)CCCCCN7C(=O)C=CC7=O)C(C)C)cc6)Cc6c5[nH]c5ccccc65)C(=O)OC[C@@H](c5c6c(c(C)c(OC(C)=O)c54)OCO6)N3[C@@H](O)[C@H](C2)N1C [DL 6]
IC50 ([11]; SK-BR-3 cells, 72 hours incubation, read-out: IC50 SK-BR-3 (HER2 positive)): 0.0709 µg/mL and 51.3 nM | IC50 ([14]; MCF-7 cells, 72 hours incubation, read-out: IC50 MCF-7 (HER2 negative)): 0.273 µg/mL and 197 nM | IC50 ([12]; HCC-1954 cells, 72 hours incubation, read-out: IC50 HCC-1954 (HER2 positive)): 0.171 µg/mL and 124 nM | IC50 ([13]; MDA-MB-231 cells, 72 hours incubation, read-out: IC50 MDA-MB-231 (HER2 negative)): 0.0429 µg/mL and 31 nM | IC50 [8, 20]: 0.04 µg/mL to 0.3 µg/mL and 31 nM to 197 nM | IC50 [8, 16]: 0.11 µg/mL and 78.9 nM
